The text below walks through data of US8702939B2, “Electrotaxis methods and devices” (McMaster University, priority 2010, dated 2014).

Type in all cases: in vivo, Caenorhabditis elegans
For series [1], the system named is C. elegans. The note with it: for movement defects on plate: lowered concentration and exposure time, slow reaction when touched on head or tail. On the procedure: (§1) All assays with toxins were done using L1 stage worms. Synchronized L1 worms were exposed to toxin solutions for different time periods with mild shaking on a rotating platform. At the end of the time period, tubes were briefly centrifuged to remove drug solution and worm pellets were diluted with […] and were plated on normal NG agar plates.
These phenotypes are in agreement with published studies.

For series [2], the system named is C. elegans. The series can be described thus: microfluidic electrotaxis assay of toxin/drug-exposed worms (U-turn, head movement, speed). The note with it: for movement speed response of toxin-treated animals: abnormal = slower than 215 μm/sec, 3V/cm. Here is the method: The toxins 6-OHDA (catalog no. 162957), Rotenone (catalog no. R8875) and Acetaminophen (catalog no. A7085) were obtained from Sigma Aldrich. MPTP (M325913) was from Toronto Research Chemicals. […] 6-OHDA solution is sensitive to light and therefore it was kept in the dark. A stock solution of Acetaminophen (10 mM) was prepared and stored at −20° C. At the time of toxin assay, the stock solution was diluted to 100 μM final concentration.
as §1
(§2) Experimental design was as described Rezai et al., ibid. Electric field was fixed at 3V/cm. Then, the direction of the electric field was changed and the worm was allowed to move the same distance in the opposite direction. The movement of each worm was recorded using a Nikon Coolpix P5100, NY, USA. The captured videos were analyzed using the ImageJ NIH image module. Three parameters—U-turn, head movement and speed—were used to characterize the behaviour of animals. For U-turn, the time (in seconds) that was taken by a moving worm to come to a stop and turn to the opposite direction after the electric field direction was reversed was recorded. Most wild type worms (˜90%, see results) were able to change direction in less than 10 seconds. Worms taking 10 sec or longer were considered to have an abnormal response. For the head movement analysis, the number of full sine waves (i.e., spanning up to three-fourth of the channel width) that a worm makes within a 30 sec. duration were determined. Wild-type worms make full sine waves in majority of cases with failures typically being less than 25%. Therefore, a threshold of 25% to place a worm in normal or abnormal category was used. […] To analyze speed, the time taken by a worm to move a distance of 5000 μm in a given direction was used. Speed was measured in both directions of movement and the average value was used as a true response. Wild type animals typically moved with a speed of 215 μm/sec and above. Therefore, animals moving slower than 215 μm/sec were considered to have an abnormal response.

Series [3] relates to C. elegans. Nature of the series: channel-based drug-screening assay: acetaminophen pre-treatment against neurotoxins (electrotaxis). Here is the method:
The toxins 6-OHDA (catalog no. 162957), Rotenone (catalog no. R8875) and Acetaminophen (catalog no. A7085) were obtained from Sigma Aldrich. MPTP (M325913) was from Toronto Research Chemicals. Desired concentrations of 6-OHDA (100 μM), MPTP (700 μM) and Rotenone (25 μM) were prepared in M9 one day before the assay and stored at −20° C. 6-OHDA solution is sensitive to light and therefore it was kept in the dark. A stock solution of Acetaminophen (10 mM) was prepared and stored at −20° C. At the time of toxin assay, the stock solution was diluted to 100 μM final concentration.
as §2
In order to establish a baseline to screen for neuroprotective compounds in a channel-based assay, the neuroprotective effect of acetaminophen (a known analgesic) against neurodegeneration caused by toxinsas tested.
Pre-treatment of worms with acetaminophen (100 uM, 24 hrs exposure during L1 stage) prior to treatment with 6-0H DA as above, conferred a significant protection on the worms as evidenced by the electrotactic response of worms using all 3 movement parameters described above. The protection ranged from 30% to 50% (FIG. 34). […] The defect in head movement was decreased by 40% and U-turn by 30%. The impact of Acetaminophen on Rotenone-induced neuronal toxicity and provide first evidence that Acetaminophen protects DA neurons from the toxic effects of Rotenone. While the head movement defect was decreased by 20%, abnormalities in U-turn response and speed were lower by 50% and 38%, respectively.

In series [4] the test system is DA neurons. The series can be described thus: toxin-induced degeneration of DA neurons in dat-1p::yfp transgenic animals. The text has this:
In some cases, the entire dendritic processes were missing.

As to `C=C(C)[C@H]1Cc2c(ccc3c2O[C@@H]2COc4cc(OC)c(OC)cc4[C@@H]2C3=O)O1` [Rotenone], the “appearance on the plate” value in series [1] (25 μM Rotenone for 1-8 hr) is reported as “largely healthy”. In addition, the “morphology of exposed worms” value in series [1] (25 μM rotenone for less than 12 hrs) was “morphological defects similar to MPTP”. The “movement defects on plate” value in series [1] was “only subtle and low penetrant movement defects”. For the same compound, the “electrotactic movement” value in series [2] (25 μM Rotenone for 1-8 hr) was “abnormal electrotactic movement”. The “defect in the speed of animals” value in series [2] (Rotenone exposure) worked out at 48%. Besides, the “abnormal head movement response, proportion of worms” value in series [2] (Rotenone, after 8 hrs of toxin exposure) was “up to 30%”.
Turning to `CC(=O)Nc1ccc(O)cc1` [acetaminophen], in series [3] (MPTP), the “decrease of U-turn defect” value is listed as 30% and the “decrease of head movement defect” value was 40%. In series [3] (Rotenone), the “decrease of abnormalities in U-turn response” value came out at 50%, the “decrease of abnormalities in speed” value is listed as 38% and the “decrease of head movement defect” value was determined as 20%.
For `c1ccc([C@H]2CN3CCSC3=N2)cc1` [levamisole], the “movement response in microfluidic channel” value in series [2] (10 μM levamisole, only 5 worms tested) was “reduced movement”.
Consider `CN1CC=C(c2ccccc2)CC1` [MPTP, 1-methyl 4-phenyl 1,2,3,6-tetrahydropyridine], for which the “appearance on NG agar plates” value in series [1] (700 μM MPTP for up to 8 hrs) was “fairly active and healthy”. Also, in series [1] (1.4 mM MPTP for 3 days), the “phenotype of treated L1 worms” value was “almost completely uncoordinated and paralyzed”. For the same compound, the “movement defects on plate” value in series [1] is “only subtle and low penetrant movement defects”. In series [2] (700 μM MPTP for up to 8 hrs), the “electrotactic response in channel” value is on record as “obvious defects in the channel assay”. Also, the “head movement defects, proportion of worms” value in series [2] (MPTP, 4 hr exposure) came to 80%. Moreover, in series [2], the “movement speed response of toxin-treated animals” value is “wild type response in all 3 conditions tested”.
As for `NCCc1cc(O)c(O)cc1O` [6-OHDA, 6-hydroxydopamine], the “phenotype of treated L1 animals” value in series [1] (5 mM 6-OHDA) was “extreme sluggishness, uncoordinated movement, protruding vulva, growth arrest and early larval lethality”. Besides, the “weak uncoordinated phenotype, proportion of worms (plate)” value in series [1] (6-OHDA, 30 min exposure) is reported as “one-quarter”. In addition, the “morphological defects on plate” value in series [1] (6-OHDA, 4 hr exposure) was “morphological defects such as protruding vulva (Pvl)”. The “uncoordinated phenotype, proportion of animals (plate)” value in series [1] (6-OHDA, 4 hr exposure) is 86%. Further, the “degeneration of DA neurons” value in series [4] (6-OHDA 100 μM for 4 hours) was “did not cause an obvious degeneration of DA neurons”. For the same compound, the “animals with DA neuron (CEP dendritic process) defects” value in series [4] (6-OHDA 100 μM, longer exposure ~71 hrs) came to 15%. Besides, the “electrotactic response in channel” value was “abnormal electrotactic response” in series [2] (100 μM 6-OHDA for as little as 30 min); “practically immobile and unresponsive to the electric field stimulus” in series [2] (5 mM 6-OHDA treated L1 animals). In addition, the “U-turn defect, proportion of worms” value in series [2] (6-OHDA 100 μM, within 4 hour exposure of L1 worms, electric field 3V/cm, abnormal = 10 sec or longer) is listed as 30-80%. Further, the “defective head movement response, proportion of worms” value in series [2] (6-OHDA, 30 minutes toxin exposure) is recorded as “about one-third”; in series [2] (6-OHDA, 4 hour exposure) it was 61%. In series [2] (6-OHDA, 1 hr exposure), the “defective head movement response, proportion of animals” value was 50%. In addition, the “movement speed response of toxin-treated animals” value in series [2] is on record as “most defective response compared to the other 2 toxins”.
